# How the values were obtained:
# A-Raf kinase = molecular target: T1, A-Raf kinase (Homo sapiens, UniProt P10398, Y301D/Y302D); assay: Biochemical assay for A-Raf.2 (coupled pyruvate kinase/lactate dehydrogenase); settings: read-out: ARAF.2 IC50
# T1 construct: purchased Sigma
# Description: Biochemical Assay for A-Raf.2
# Activity of A-Raf kinase (SEQ. ID No: 1) was determined spectroscopically using a coupled pyruvate kinase/lactate dehydrogenase assay that continuously monitors the ATP hydrolysis-dependent oxidation of NADH (e.g., Schindler et al., Science, 2000, 289, 1938-1942). Assays were conducted in 384-well plates (25 μL final volume) using 20 nM A-Raf (Eurofins), 1.5 units pyruvate kinase, 2.1 units lactate dehydrogenase, 1 mM phosphoenol pyruvate, 0.7 mM NADH, 100 nM MEK (SignalChem), and 1 mM ATP in assay buffer (100 mM Tris, pH 7.5, 15 mM MgCl2, 0.5 mM DTT, 0.1% octyl-glucoside, 0.002% (w/v) BSA, and 0.002% Triton X-100). Inhibition of A-Raf was measured by adding serial diluted test compound (final assay concentration of 1% DMSO). A decrease in absorption at 340 nm was monitored hourly for 4 h at 30° C. on a multi-mode microplate reader (BioTek). The reaction rate was calculated using the 3 to 4 h time frame. The reaction rate at each concentration of compound was converted to percent inhibition using controls (i.e., reaction with no test compound and reaction with a known inhibitor) and IC50 values were calculated by fitting a four-parameter sigmoidal curve to the data using Prism (GraphPad software).
# H2405 cells = assay: H2405 cell proliferation assay (1), resazurin, 96-well; type: cell-based; settings: Homo sapiens, NCI-H2405, inhibition of cell proliferation
# Outline: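 This is a resazurin viability readout (excitation 540 nm, emission 600 nm) taken 5-6 h after adding 440 μM resazurin solution, giving IC50 values.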
# A375 cells = assay: A375 cell proliferation assay (1), resazurin, 96-well; type: cell-based; settings: Homo sapiens, A-375, inhibition of cell proliferation
# Outline: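 Viability was read by resazurin fluorescence at 540 nm excitation and 600 nm emission, using a 440 μM solution added for 5–6 h at the end of culture. IC50 came from the curve fit.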
# WM3928 cells = assay: WM3928 cell proliferation assay (1), resazurin, 96-well; type: cell-based; settings: inhibition of cell proliferation
# Outline: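 IC50 was derived from resazurin fluorescence (ex 540, em 600 nm) after a 6–7 h dye incubation. Before that, cells had 67–72 h of compound exposure at 37 °C, 5% CO2.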
# T1 sequence (P10398 with tags, fused parts or gaps Y301D/Y302D): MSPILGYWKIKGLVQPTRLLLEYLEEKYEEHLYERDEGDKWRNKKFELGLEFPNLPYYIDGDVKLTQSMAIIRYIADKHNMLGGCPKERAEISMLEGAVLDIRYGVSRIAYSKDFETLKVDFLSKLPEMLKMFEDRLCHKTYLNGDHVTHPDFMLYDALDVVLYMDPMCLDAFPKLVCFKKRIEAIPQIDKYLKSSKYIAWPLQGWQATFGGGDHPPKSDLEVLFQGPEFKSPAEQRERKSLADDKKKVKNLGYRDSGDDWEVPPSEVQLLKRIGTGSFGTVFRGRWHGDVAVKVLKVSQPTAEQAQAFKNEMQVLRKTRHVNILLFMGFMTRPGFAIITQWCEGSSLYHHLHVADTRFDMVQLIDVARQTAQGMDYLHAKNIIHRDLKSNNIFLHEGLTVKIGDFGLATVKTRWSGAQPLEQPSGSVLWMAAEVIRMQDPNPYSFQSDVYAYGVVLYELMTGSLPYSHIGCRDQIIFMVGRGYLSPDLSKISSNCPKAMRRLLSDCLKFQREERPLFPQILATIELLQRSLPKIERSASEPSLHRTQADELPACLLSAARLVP
IC50 (A-Raf kinase) [nM],IC50 (H2405 cells) [nM],IC50 (A375 cells) [nM],Structure (SMILES),IC50 (WM3928 cells) [nM]
> 1000,500 to 1000,–,CNC(=O)c1cc(-c2cncc(-c3cc(NC(=O)N4CC[C@H](C(C)C)C4)ccc3C)c2)ncn1 [Example 226],–
≤ 100,–,–,Cc1ccc(NC(=O)N2CC[C@H](C)C2)cc1-c1cncc(-c2cc(NC(=O)C3CC3)ncn2)c1 [Example 227],–
–,1000 to 10000,1000 to 10000,Cc1cc(F)c(NC(=O)N2CCC(C)(C#N)CC2)cc1-c1cc(OCCO)nc(-c2ccnc3[nH]ncc23)c1 [Example 92],1000 to 10000
> 1000,100 to 500,–,CNC(=O)c1cc(-c2cc(-c3cc(NC(=O)N4CC[C@H](C(C)C)C4)ccc3C)ccn2)ccn1 [Example 225],–
> 1000,–,–,CNC(=O)c1cc(-c2cncc(-c3cc(NC(=O)N4CC[C@H](C(C)C)C4)ccc3C)c2)ccn1 [Example 229],–
> 1000,500 to 1000,–,CNC(=O)c1cc(-c2cncc(-c3cc(NC(=O)N4CC[C@H](C(F)(F)F)C4)ccc3C)c2)ncn1 [Example 220],–
> 1000,–,–,CNC(=O)c1cc(-c2cncc(-c3cc(NC(=O)N4CC[C@H](C(F)(F)F)C4)ccc3C)c2)ccn1 [Example 228],–
> 1000,–,1000 to 10000,CNC(=O)c1cc(-c2cc(-c3cc(NC(=O)N4CC[C@H](C(F)(F)F)C4)ccc3C)ccn2)ccn1 [Example 215],500 to 1000
100 to 500,100 to 500,100 to 500,COC(=O)Nc1cc(-c2cncc(-c3cc(NC(=O)N4CC[C@H](C(F)(F)F)C4)ccc3C)c2)ncn1 [Example 224],100 to 500

# Second part, the compound before the results:
Structure (SMILES),IC50 (A-Raf kinase) [nM],IC50 (H2405 cells) [nM],IC50 (A375 cells) [nM],IC50 (WM3928 cells) [nM]
Cc1cc(F)c(NC(=O)NCC[C@@H]2CCO2)cc1-c1cc(OCCO)nc(-c2ccnc3[nH]ncc23)c1 [Example 89],–,1000 to 10000,1000 to 10000,1000 to 10000
COC(=O)Nc1cc(-c2cccc(-c3cc(NC(=O)NCCC(C)(C)OC)c(F)cc3C)c2)ccn1 [Example 85],–,100 to 500,100 to 500,100 to 500
Cc1cc(F)c(NC(=O)N[C@@H]2CC[C@H](F)C2)cc1-c1cc(OCCO)nc(-c2ccnc3[nH]ncc23)c1 [Example 88],–,1000 to 10000,1000 to 10000,1000 to 10000
Cc1cc(F)c(NC(=O)NCCC2(C)CC2)cc1-c1cc(OCCO)nc(-c2ccnc3[nH]ncc23)c1 [Example 87],–,100 to 500,100 to 500,≤ 100
COC(C)(C)CCNC(=O)Nc1cc(-c2cc(OCCO)nc(-c3ccnc4[nH]ccc34)c2)c(C)cc1F [Example 90],–,500 to 1000,1000 to 10000,500 to 1000
COC(C)(C)CCNC(=O)Nc1cc(-c2cc(OCCO)nc(-c3ccnc4[nH]ncc34)c2)c(C)cc1F [Example 91],–,100 to 500,500 to 1000,100 to 500

# Reference: patent publication US20230357179A1, “RAF KINASE INHIBITORS AND METHODS OF USE THEREOF” (Deciphera Pharmaceuticals, LLC, priority 2021, published 2023)
